Data as given in patent US20240115531A1, “Composition for Treating Hair and Scalp” (DR. KURT WOLFF GMBH & CO. KG, priority 2020, published 2024).
Entries after “also recorded” stand apart in the source; their conditions may differ.

Columns and labels:
VEGF = experiment: Gene expression of VEGF by qRT-PCR in HaCaT cells; type: cell-based, human; conditions: after 24 hours of cultivation, versus control without DMG, FIG. 3
Description: VEGF (Vascular Endothelial Growth Factor) promotes the growth and formation of new blood and lymphatic vessels. Gene expression was measured using a standard method known as quantitative real-time PCR (qRT-PCR).
Human epidermal keratinocyte cells (HaCaT) were seeded in a 6-well plate at a cell density of 140,000 cells/well and cultured in medium (DMEM with 10% FBS, 1% penicillin-streptomycin, 0.5% fungizone) at 37° C. und 5% by volume CO2. The next day, the cell culture medium without (control) or with the active substance concentrations already present in each case was changed, and the cells were harvested after 24 hours. Gene expression was measured using qRT-PCR based on studies already published in B. V. Diaz, M.-C. Lenoir, A. Ladoux, C. Frelin, M. Demarchez, S. Michel, Journal of Biological Chemistry 2000, 275, 642-650.
The relative gene expression determined by qRT-PCR (triple determination, normalized to the respective gene expression of a constitutively expressed gene; GAPDH—glyceraldehyde-3-phosphate dehydrogenase) of VEGF is shown. Shown is the mean value with standard deviation.

[1] = tested on: Human epidermal keratinocyte cells (HaCaT); experiment: CyQUANT assay, cell proliferation of HaCaT keratinocytes; type: cell-based; conditions: versus control without DMG, FIG. 2
Description: (§1) 1. As part of an in vitro study, the effect of Na-dimethylglycinate was examined in a cell culture model with human horn-forming keratinocyte cells. For this purpose, HaCaT cells were cultured for 1, 3, 5, and 7 days in DMEM medium (including fetal calf serum and an anti biotic-anti mycotic mix) and, among other things, the viability and proliferation of the cells were determined using suitable measurement methods, and the expression of the growth factors relevant for cell growth was measured.
A so-called CyQUANT assay was carried out to measure the proliferation. In this fluorescence-based assay, the fluorescent dye used binds to DNA (deoxyribonucleic acid), with the content of cellular DNA being a direct measure of the number of cells in a sample.
Human epidermal keratinocyte cells (HaCaT) were seeded in a 96-well plate at a cell density of 5,000 cells/well and cultured in medium (DMEM with 10% FBS, 1% penicillin-streptomycin, 0.5% fungizone). The next day and after a further 24 h as well as 48 h and 72 h of cultivation at 37° C. and 5% by volume CO2, the cell culture medium without (control) or with the active ingredient concentrations already present was changed. […]
The cell proliferation was determined using the CyQUANT assay. The fluorescence was measured in triplicate and normalized to the control at 24 hours. […]

[2] = tested on: Human epidermal keratinocyte cells (HaCaT); experiment: MTT assay, cell viability of HaCaT keratinocytes; type: cell-based; conditions: versus control without DMG, FIG. 1
Description: as §1
For this measurement, a so-called MTT assay was used to determine cellular metabolic activity as an indicator of cell viability and cytotoxicity. This colorimetric assay is based on the reduction of a yellow tetrazolium salt (3-(4,5-dimethylthiazol-2-yl)-2,5-diphenyltetrazolium bromide or MTT) to purple formazan crystals by metabolically active cells.
Human epidermal keratinocyte cells (HaCaT) were seeded in a 96-well plate at a cell density of 5,000 cells/well and cultured in medium (DMEM with 10% FBS, 1% penicillin-streptomycin, 0.5% fungizone). […]
Cell viability was determined using the MTT assay. The absorption was measured in quadruplicate and normalized to the control at 24 hours. […]

SMILES: CN(C)CC(=O)[O-].[Na+] [DMG, sodium dimethylglycinate]
- relative gene expression of VEGF (normalized to GAPDH) (VEGF): significant increase; also recorded: significantly increased
- cell proliferation (CyQUANT fluorescence normalized to the control at 24 hours) ([1]; after 48 h of cultivation): clear increase
- cell proliferation (CyQUANT fluorescence normalized to the control at 24 hours) ([1]; after 72 h of cultivation): clear increase
- cell viability (MTT absorption normalized to the control at 24 hours) ([2]; after 48 h of cultivation): clear increase
- cell viability (MTT absorption normalized to the control at 24 hours) ([2]; after 72 h of cultivation): clear increase
